Test results taken from patent publication US10869931B2, “Polyethylene glycol-modified angiogenesis inhibitor HM-1 and application thereof” (NANJING ANJI BIOLOGICAL TECHNOLOGY CO.,LTD, priority 2016, dated 2020).
Marks after values point to notes of the source that are not given here. Where no end group is shown, it is not given here.

Assays:
[1] = system: Bladder Cancer tumor cells; test: MTT proliferation inhibition, bladder cancer cells; format: cell-based, human; parameters: concentration or dose not given beside the values; conditions: 48 h
Procedure, shortened: (§1)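 Tumour cells plated at 2×10^4 cells/mL, attached overnight, then exposed to dilutions of mPEG-HM-1 for 48 h at 37 °C, 5% CO2. MTT added 4 h, formazan dissolved in DMSO, absorbance 570/630 nm; growth inhibition = 1 − treated/untreated, three independent repeats, mean±SD.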

[2] = system: Uterine cancer tumor cells; test: MTT proliferation inhibition, uterine cancer cells; format: cell-based, human; parameters: concentration or dose not given beside the values; conditions: 48 h
Procedure, shortened: as §1

[3] = system: collagen induced arthritis (CIA) in DBA/1 mice; test: Collagen-induced mouse arthritis (CIA) model; format: in vivo; conditions: for Joint swelling / Left and right paw swelling / Clinical score: CIA DBA/1 mice; for Clinical score: maximum score 16
mouse spleen lymphocytes = test: ConA-stimulated mouse spleen lymphocyte proliferation (MTT); format: cell-based; conditions: ConA 5 μg/mL, 48 h
Procedure, shortened: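 Proliferation read by MTT (4 h), DMSO solubilisation and OD 570 nm, 5 replicates, after 48 h culture at 37° C. Cells were erythrocyte-depleted splenocytes at 5×10^6/mL in RPMI 1640 plus 10% calf serum; groups were blank, ConA and dexamethasone 0.02 mg/mL.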

[4] = system: adjuvant arthritis (AA) SD rats; test: Adjuvant arthritis (AA) rat model; format: in vivo; conditions: for Joint swelling / Left and right paw swelling / Clinical score: AA SD rats; for Clinical score: maximum score 16
[5] = system: retinal neovascular clusters in OIR C57/B16 mice; test: Retinal blood vessels in OIR mice; format: in vivo, mouse; conditions: for Neovascular clusters area: retina evaluated on day 17; for Inhibition rate: neovascular clusters area vs control, day 17
Procedure, shortened: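 C57/B16 pups and mothers were held in 75% oxygen from postnatal day 7 to 12, then returned to room air. On day 13 the PEGylated HM-1 conjugates or saline were given by intravitreal injection; on day 17 retinal vessels were assessed after intracardiac Texas Red-tomato lectin, circulated 5 min.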

Hemangioma tumor cells = test: MTT proliferation inhibition, hemangioma cells; format: cell-based, human; parameters: concentration or dose not given beside the values; conditions: 48 h
Procedure, shortened: as §1

[6] = system: corneal neovascularization in BALB/c mice; test: Alkali-burn corneal neovascularization in BALB/c mice (CD31 microvessel density); format: in vivo, mouse; conditions: for Inhibition rate: corneal microvessel density vs control; for Inhibition rate / MVD: day 14 after alkali burn, intravitreal once a day for 1 week; for MVD: microvessel density (CD31) of cornea
Procedure, shortened: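 Mice received mPEG-HM-1 or saline by intravitreal injection once daily for 1 week after corneal alkali burn, with slit-lamp observation at 1, 7 and 14 d. At day 14, 8 μm frozen corneal sections were stained with anti-CD31, and microvessels per unit corneal area were counted; mean±SD of 3 independent tests, t test.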

[7] = 20 mg/kg subcutaneous from day 30 of modeling
[8] = 20 mg/kg subcutaneous once every three days
[9] = 40 mg/kg subcutaneous from day 30 of modeling
[10] = 40 mg/kg subcutaneous once every three days
[11] = 80 mg/kg subcutaneous from day 30 of modeling
[12] = 80 mg/kg subcutaneous once every three days

mPEG-bALD10k-Arg-Gly-Ala-Asp-Arg-Ala-Gly-Gly-Gly-Gly-Arg-Gly-Asp ({mPEG‑bALD 10 kDa}-RGADRAGGGGRGD) [mPEG-bALD10k-HM-1]
rate of growth inhibition [1]: 49.61 ± 12.12% | rate of growth inhibition [2]: 79.79 ± 20.45% | Joint swelling [3, 7]: 0.74 ± 0.12 mm | Left and right paw swelling [3, 7]: 0.71 ± 0.12 mm | Clinical score [3, 7]: 8.69 ± 1.38 | limbs score (in words) ([3]; CIA mice, subcutaneous, once every three days, vs model control group): significantly lower than that of the model control group | A570 nm/A630 nm (mouse spleen lymphocytes; 10 μg/mL): 0.6179 ± 0.1049 | Inhibition Rate of spleen lymphocyte proliferation (mouse spleen lymphocytes; 10 μg/mL): 10.94% | A570 nm/A630 nm (mouse spleen lymphocytes; 20 μg/mL): 0.5469 ± 0.1122 | Inhibition Rate of spleen lymphocyte proliferation (mouse spleen lymphocytes; 20 μg/mL): 21.18% | A570 nm/A630 nm (mouse spleen lymphocytes; 40 μg/mL): 0.4666 ± 0.1040 | Inhibition Rate of spleen lymphocyte proliferation (mouse spleen lymphocytes; 40 μg/mL): 32.75% | Joint swelling [4, 8]: 0.69 ± 0.13 mm | Left and right paw swelling [4, 8]: 3.73 ± 0.52 mm | Clinical score [4, 8]: 5.40 ± 1.09 | in vivo immune protection effect on adjuvant arthritis model (in words) ([4]; AA rats, subcutaneous, once every three days, vs model group): has the most significant effect | Neovascular clusters area ([5]; 50 μg intravitreal injection on day 13): 0.083 ± 0.006 mm^2 | Inhibition rate ([5]; 50 μg intravitreal): 62.35%** | inhibition rate of retinal neovascular clusters ([5]; OIR mice, 50 μg intravitreal injection, evaluated day 17): 62.35% | rate of growth inhibition (Hemangioma tumor cells): 55.28 ± 12.30% | inhibition rate of corneal neovascularization ([6]; BALB/c mice, alkali burn, intravitreal injection once a day for 1 week): 52.03% | Inhibition rate [6]: 52.03% | MVD [6]: 32.01 ± 5.738**

mPEG-bALD20k-Arg-Gly-Ala-Asp-Arg-Ala-Gly-Gly-Gly-Gly-Arg-Gly-Asp ({mPEG‑bALD 20 kDa}-RGADRAGGGGRGD) [mPEG-bALD20k-HM-1]
rate of growth inhibition [1]: 45.24 ± 10.69% | rate of growth inhibition [2]: 75.97 ± 22.67% | Joint swelling [3, 9]: 0.73 ± 0.15 mm | Left and right paw swelling [3, 9]: 0.75 ± 0.11 mm | Clinical score [3, 9]: 8.67 ± 1.32 | A570 nm/A630 nm (mouse spleen lymphocytes; 20 μg/mL): 0.6104 ± 0.1005 | Inhibition Rate of spleen lymphocyte proliferation (mouse spleen lymphocytes; 20 μg/mL): 12.02% | A570 nm/A630 nm (mouse spleen lymphocytes; 40 μg/mL): 0.4988 ± 0.1173 | Inhibition Rate of spleen lymphocyte proliferation (mouse spleen lymphocytes; 40 μg/mL): 28.10% | A570 nm/A630 nm (mouse spleen lymphocytes; 80 μg/mL): 0.4453 ± 0.1054 | Inhibition Rate of spleen lymphocyte proliferation (mouse spleen lymphocytes; 80 μg/mL): 35.82% | Joint swelling [4, 10]: 0.77 ± 0.23 mm | Left and right paw swelling [4, 10]: 3.78 ± 0.63 mm | Clinical score [4, 10]: 5.68 ± 1.10 | Neovascular clusters area ([5]; 100 μg intravitreal injection on day 13): 0.097 ± 0.011 mm^2 | Inhibition rate ([5]; 100 μg intravitreal): 56.22%** | rate of growth inhibition (Hemangioma tumor cells): 50.31 ± 14.00% | Inhibition rate [6]: 47.84% | MVD [6]: 34.81 ± 6.817**

mPEG-bALD40k-Arg-Gly-Ala-Asp-Arg-Ala-Gly-Gly-Gly-Gly-Arg-Gly-Asp ({mPEG‑bALD 40 kDa}-RGADRAGGGGRGD) [mPEG-bALD40k-HM-1]
rate of growth inhibition [1]: 43.82 ± 10.31% | rate of growth inhibition [2]: 70.51 ± 20.22% | Joint swelling [3, 11]: 0.78 ± 0.16 mm | Left and right paw swelling [3, 11]: 0.79 ± 0.13 mm | Clinical score [3, 11]: 9.01 ± 1.45 | A570 nm/A630 nm (mouse spleen lymphocytes; 40 μg/mL): 0.6191 ± 0.0986 | Inhibition Rate of spleen lymphocyte proliferation (mouse spleen lymphocytes; 40 μg/mL): 10.77% | A570 nm/A630 nm (mouse spleen lymphocytes; 80 μg/mL): 0.5089 ± 0.1230 | Inhibition Rate of spleen lymphocyte proliferation (mouse spleen lymphocytes; 80 μg/mL): 26.65% | A570 nm/A630 nm (mouse spleen lymphocytes; 160 μg/mL): 0.4848 ± 0.1146 | Inhibition Rate of spleen lymphocyte proliferation (mouse spleen lymphocytes; 160 μg/mL): 30.12% | Joint swelling [4, 12]: 0.74 ± 0.18 mm | Left and right paw swelling [4, 12]: 3.81 ± 0.62 mm | Clinical score [4, 12]: 5.78 ± 1.05 | Neovascular clusters area ([5]; 200 μg intravitreal injection on day 13): 0.110 ± 0.012 mm^2 | Inhibition rate ([5]; 200 μg intravitreal): 50.31%** | rate of growth inhibition (Hemangioma tumor cells): 48.69 ± 12.72% | Inhibition rate [6]: 45.27% | MVD [6]: 36.52 ± 6.537**
